# According to patent publication US20260250318A1, “COMPOSITIONS AND METHODS FOR CROSSING THE BLOOD BRAIN BARRIER” (VOYAGER THERAPEUTICS, INC., priority 2022, published 2026):
# Legend:
# [1] = system: brains, heart, liver, muscle, and DRG of the NHPs; assay: Maturation of TTM-001 and TTM-002 capsids, NGS enrichment in NHP tissues; type: in vivo; conditions: relative to AAV9 control
# Summary of the method: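 Variants carry mutations within and flanking the loop IV peptide insert: positions 450–466 were triplet-randomized, while positions 449–466 received low-frequency point mutations. The combined pool went into two NHPs, and each peptide was scored by NGS enrichment ratio against AAV9.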
# brain = assay: Matured TTM-001 and TTM-002 variants, NGS enrichment in mouse brain; type: in vivo, mice; conditions: relative to AAV9 control
# [2] = NGS fold-enrichment of matured AAV capsid variants, NHP brain, RNA
# [3] = NGS fold-enrichment, DRG of NHPs
# [4] = NGS fold-enrichment, RNA, brain of NHPs
# [5] = NGS fold-enrichment, heart of NHPs
# [6] = NGS fold-enrichment, liver DNA of NHPs
# [7] = NGS fold-enrichment, liver RNA of NHPs
# [8] = NGS fold-enrichment, muscle of NHPs
# [9] = NGS fold-enrichment, brain of mice
# [10] = NGS fold-enrichment of RNA, NHP brain
# [11] = NGS fold-enrichment, NHP liver DNA
# [12] = NGS fold-enrichment, NHP liver RNA
# [13] = NGS fold-enrichment, NHP muscle
# [14] = NGS fold-enrichment, mouse brain
Sequence,"Fold Enrichment relative to AAV9, Brain (NHP) [1, 2]","Fold Enrichment relative to AAV9, DRG (NHP) ([1]; NHP DRG)","Fold Enrichment relative to AAV9, Heart (NHP) ([1]; NHP heart)","Fold Enrichment relative to AAV9, Liver DNA (NHP) ([1]; NHP liver, DNA)","Fold Enrichment relative to AAV9, Liver RNA (NHP) ([1]; NHP liver, RNA)","Fold Enrichment relative to AAV9, Muscle (NHP) ([1]; NHP muscle)","Fold Enrichment relative to AAV9, Brain (Mouse) (brain; mouse brain)","Fold Enrichment relative to AAV9, DRG (NHP) [1, 3]","Fold Enrichment relative to AAV9, Brain (NHP) [1, 4]","Fold Enrichment relative to AAV9, Heart (NHP) [1, 5]","Fold Enrichment relative to AAV9, Liver DNA (NHP) [1, 6]","Fold Enrichment relative to AAV9, Liver RNA (NHP) [1, 7]","Fold Enrichment relative to AAV9, Muscle (NHP) [1, 8]","Fold Enrichment relative to AAV9, Brain (NHP) [1, 10]","Fold Enrichment relative to AAV9, DRG (NHP) ([1]; NGS fold-enrichment, NHP DRG)","Fold Enrichment relative to AAV9, Heart (NHP) ([1]; NGS fold-enrichment, NHP heart)","Fold Enrichment relative to AAV9, Liver DNA (NHP) [1, 11]","Fold Enrichment relative to AAV9, Liver RNA (NHP) [1, 12]","Fold Enrichment relative to AAV9, Muscle (NHP) [1, 13]","Fold Enrichment relative to AAV9, Brain (Mouse) (brain; [14])",also measured
KTDVKSGSPHSKAQNQQT,51.296 fold,0.000 fold,0.000 fold,0.224 fold,0.515 fold,0.000 fold,53.601 fold,–,–,–,–,–,–,–,–,–,–,–,–,–,–
KTINGSGSPHSKAQGIRT,–,–,–,–,–,–,–,0.041 fold,61.952 fold,0.000 fold,0.502 fold,0.897 fold,0.012 fold,–,–,–,–,–,–,–,"Fold Enrichment relative to AAV9, Brain (Mouse) (brain; [9]): 155.013 fold"
KSINGYDSPHKSGQTQQT,–,–,–,–,–,–,–,–,–,–,–,–,–,79.227 fold,1.817 fold,0.226 fold,1.148 fold,0.000 fold,0.000 fold,4.497 fold,–
KTINGSGSPHSKAQSKVT,56.373 fold,0.000 fold,0.050 fold,0.390 fold,1.021 fold,0.014 fold,76.115 fold,–,–,–,–,–,–,–,–,–,–,–,–,–,–
KTVNGHDSPHKSGQNHLT,–,–,–,–,–,–,–,–,–,–,–,–,–,81.516 fold,0.000 fold,0.100 fold,0.028 fold,0.000 fold,0.017 fold,16.096 fold,–
KTSSGSGSPHSKAQYQQT,–,–,–,–,–,–,–,0.000 fold,87.304 fold,0.000 fold,0.299 fold,0.000 fold,0.000 fold,87.304 fold,0.000 fold,0.000 fold,0.299 fold,0.000 fold,0.000 fold,58.143 fold,"Fold Enrichment relative to AAV9, Brain (Mouse) (brain; [9]): 58.143 fold"
KTEVGHDSPHKSGQNQQT,–,–,–,–,–,–,–,–,–,–,–,–,–,112.457 fold,0.000 fold,0.011 fold,0.138 fold,0.000 fold,0.000 fold,13.125 fold,–
KTDRSSGSPHSKAQNQQT,52.737 fold,0.000 fold,0.000 fold,0.085 fold,0.995 fold,0.000 fold,123.421 fold,–,–,–,–,–,–,–,–,–,–,–,–,–,–
KTINGSGSSHSKAQNQQT,54.292 fold,1.709 fold,1.870 fold,0.458 fold,1.075 fold,1.287 fold,67.731 fold,–,–,–,–,–,–,–,–,–,–,–,–,–,–
KTINGSGSPHSKAQYRAT,51.008 fold,0.000 fold,0.158 fold,0.120 fold,0.690 fold,0.000 fold,50.650 fold,–,–,–,–,–,–,–,–,–,–,–,–,–,–
KTEKMSGSPHSKAQNQQT,–,–,–,–,–,–,–,0.523 fold,169.461 fold,0.000 fold,0.158 fold,0.000 fold,0.000 fold,169.461 fold,0.523 fold,0.000 fold,0.158 fold,0.000 fold,0.000 fold,109.161 fold,"Fold Enrichment relative to AAV9, Brain (Mouse) (brain; [9]): 109.161 fold"
KTCNKSGSPHSKAQNQQT,–,–,–,–,–,–,–,0.000 fold,83.992 fold,0.000 fold,0.000 fold,0.283 fold,0.165 fold,83.992 fold,0.000 fold,0.000 fold,0.000 fold,0.283 fold,0.165 fold,119.496 fold,"Fold Enrichment relative to AAV9, Brain (Mouse) (brain; [9]): 119.496 fold"
KTINGSGSPHSKAQNTHD,58.108 fold,0.000 fold,0.027 fold,0.126 fold,0.410 fold,0.000 fold,81.189 fold,–,–,–,–,–,–,–,–,–,–,–,–,–,–
KSELGSGSPHSKAQNQQT,55.997 fold,0.000 fold,0.005 fold,0.239 fold,0.881 fold,0.000 fold,120.521 fold,–,–,–,–,–,–,–,–,–,–,–,–,–,–
KTINGSGSPHSKGQNPPT,–,–,–,–,–,–,–,0.000 fold,72.339 fold,0.206 fold,0.041 fold,0.000 fold,0.000 fold,–,–,–,–,–,–,–,"Fold Enrichment relative to AAV9, Brain (Mouse) (brain; [9]): 134.808 fold"
KTINGSGSPHSKAQSVHT,53.226 fold,0.000 fold,0.004 fold,0.217 fold,0.446 fold,0.000 fold,76.110 fold,–,–,–,–,–,–,–,–,–,–,–,–,–,–
